Measurements as given in patent US10894784B2, “Heteroarylbenzimidazole compounds” (BAYER PHARMA AKTIENGESELLSCHAFT, priority 2015, dated 2021).

The molecules below were run against TBK1 (Homo sapiens (Human), UniProt Q9UHD2) (assay: TBK1 low ATP kinase assay (in vitro assay 1)). Details: in vitro assay 1, read-out: TBK1 low ATP kinase assay IC50.
Format: biochemical

Chain of TBK1 (Q9UHD2 whole entry): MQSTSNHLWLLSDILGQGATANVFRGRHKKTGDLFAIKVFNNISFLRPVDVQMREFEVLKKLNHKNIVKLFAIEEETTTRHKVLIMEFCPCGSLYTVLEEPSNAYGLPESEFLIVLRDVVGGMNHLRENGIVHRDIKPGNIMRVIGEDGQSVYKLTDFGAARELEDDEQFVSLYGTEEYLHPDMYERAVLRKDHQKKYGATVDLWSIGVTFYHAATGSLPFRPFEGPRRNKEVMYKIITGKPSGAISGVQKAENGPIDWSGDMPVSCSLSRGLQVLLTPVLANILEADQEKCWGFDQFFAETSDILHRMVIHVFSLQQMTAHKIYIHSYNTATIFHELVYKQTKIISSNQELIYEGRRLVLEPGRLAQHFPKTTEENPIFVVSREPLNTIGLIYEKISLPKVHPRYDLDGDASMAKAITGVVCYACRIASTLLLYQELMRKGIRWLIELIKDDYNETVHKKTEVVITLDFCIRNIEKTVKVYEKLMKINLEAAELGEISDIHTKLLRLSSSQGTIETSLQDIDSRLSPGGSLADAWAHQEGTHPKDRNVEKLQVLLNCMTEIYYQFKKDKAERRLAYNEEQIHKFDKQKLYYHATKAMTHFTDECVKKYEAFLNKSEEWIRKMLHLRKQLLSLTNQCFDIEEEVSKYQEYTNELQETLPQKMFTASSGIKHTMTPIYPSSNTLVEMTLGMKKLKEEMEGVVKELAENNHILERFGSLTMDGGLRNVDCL

CC(C)(C)OC(=O)N1CCN(Cc2ccnc(Nc3nc4ccc(-c5ncnc(NCC6CC6)c5F)cc4[nH]3)c2)CC1 [Example 195.01, tert-butyl 4-({2-[(6-{6-[(cyclopropylmethyl)amino]-5-fluoropyrimidin-4-yl}-1H-benzimidazol-2-yl)amino]pyridin-4-yl}methyl)piperazine-1-carboxylate] and COc1c(Cl)ncnc1-c1ccc2nc(Nc3cc(CN4CCN(C(=O)OC(C)(C)C)CC4)ccn3)[nH]c2c1 [Compound 60.01, tert-butyl 4-[(2-{[6-(6-chloro-5-methoxypyrimidin-4-yl)-1H-benzimidazol-2-yl]amino}pyridin-4-yl)methyl]piperazine-1-carboxylate] are within 1.5-fold of each other in IC50: 105 nM for the first, 110 nM for the second.

First: Cc1noc(-c2ccc3nc(Nc4cc(CN5C[C@@H](C)N(C(=O)CC6CC6)C[C@@H]5C)ccn4)[nH]c3c2)n1 [Example 16.02.03, 2-cyclopropyl-1-{(2R,5S)-2,5-dimethyl-4-[(2-{[6-(3-methyl-1,2,4-oxadiazol-5-yl)-1H-benzimidazol-2-yl]amino}pyridin-4-yl)methyl]piperazin-1-yl}ethanone]
Second: Cc1noc(-c2ccc3nc(Nc4cc(CN5CCN(C(=O)CC(F)(F)F)CC5)ccn4)[nH]c3c2)n1 [Example 16.01.02, 3,3,3-trifluoro-1-{4-[(2-{[6-(3-methyl-1,2,4-oxadiazol-5-yl)-1H-benzimidazol-2-yl]amino}pyridin-4-yl)methyl]piperazin-1-yl}propan-1-one]
The IC50 of the first is 2.1-fold higher: 227 nM for the first, 109 nM for the second. The second is the more potent here.

Going from COc1c(NCC2CC2)ncnc1-c1ccc2nc(Nc3cc(CN4CCN(C(=O)C5CC5)CC4)ccn3)[nH]c2c1 [Example 109.01.03, cyclopropyl[4-({2-[(6-{6-[(cyclopropylmethyl)amino]-5-methoxypyrimidin-4-yl}-1H-benzimidazol-2-yl)amino]pyridin-4-yl}methyl)piperazin-1-yl]methanone] to COc1c(NCC2CC2)ncnc1-c1ccc2nc(Nc3cc(CN4CCN(C(=O)CC(F)(F)F)CC4)ccn3)[nH]c2c1 [Example 109.01.02, 1-[4-({2-[(6-{6-[(cyclopropylmethyl)amino]-5-methoxypyrimidin-4-yl}-1H-benzimidazol-2-yl)amino]pyridin-4-yl}methyl)piperazin-1-yl]-3,3,3-trifluoropropan-1-one], the IC50 falls from 8.7 nM to 5.4 nM (1.6-fold). The second is the more potent here.

Going from O=C(CC(F)(F)F)N1CCN(Cc2ccnc(Nc3nc4ccc(-c5ccnc(N6CCOCC6)c5)cc4[nH]3)c2)CC1 [Example 134.02, 3,3,3-trifluoro-1-(4-{[2-({6-[2-(morpholin-4-yl)pyridin-4-yl]-1H-benzimidazol-2-yl}amino)pyridin-4-yl]methyl}piperazin-1-yl)propan-1-one] to COc1ccc(-c2ccc3nc(Nc4cc(CN5CCN(C(=O)CC(F)(F)F)CC5)ccn4)[nH]c3c2)cn1 [Example 13.03, 3,3,3-trifluoro-1-{4-[(2-{[6-(6-methoxypyridin-3-yl)-1H-benzimidazol-2-yl]amino}pyridin-4-yl)methyl]piperazin-1-yl}propan-1-one], the IC50 rises from 11 nM to 190 nM (17-fold). The first is the more potent here.

Compared with CC(c1ccnc(Nc2nc3ccc(-c4ccnn4C(C)C)cc3[nH]2)c1)N1CCN(C(=O)CC(F)(F)F)CC1 (single isomer, unassigned) [Example 72.02, 3,3,3-trifluoro-1-(4-{(1R or 1S)-1-[2-({6-[1-(propan-2-yl)-1H-pyrazol-5-yl]-1H-benzimidazol-2-yl}amino)pyridin-4-yl]ethyl}piperazin-1-yl)propan-1-one], COc1c(NCC2CC2)ncnc1-c1ccc2nc(Nc3cc(C(C)N4CCN(C(=O)CC(F)(F)F)CC4)ccn3)[nH]c2c1 (single isomer, unassigned) [Example 109.02.03, 1-{4-[(1R or 1S)-1-{2-[(6-{6-[(cyclopropylmethyl)amino]-5-methoxypyrimidin-4-yl}-1H-benzimidazol-2-yl)amino]pyridin-4-yl}ethyl]piperazin-1-yl}-3,3,3-trifluoropropan-1-one] is 100-fold lower in IC50: 250 nM for the first, 2.4 nM for the second. The second is the more potent here.

First: CN(C)c1cnc(-c2ccc3nc(Nc4cc(CN5CCN(C(=O)C6CC6)CC5)ccn4)[nH]c3c2)cn1 [Example 144.03, cyclopropyl(4-{[2-({6-[5-(dimethylamino)pyrazin-2-yl]-1H-benzimidazol-2-yl}amino)pyridin-4-yl]methyl}piperazin-1-yl)methanone]
Second: CCOc1cc(-c2ccc3nc(Nc4cc(CN5CCN(C(=O)C6CC6)CC5)ccn4)[nH]c3c2)ncn1 [Example 161.03, cyclopropyl{4-[(2-{[6-(6-ethoxypyrimidin-4-yl)-1H-benzimidazol-2-yl]amino}pyridin-4-yl)methyl]piperazin-1-yl}methanone]
The IC50 of the first is 66-fold higher: 440 nM for the first, 6.7 nM for the second.

Going from COc1cnccc1-c1ccc2nc(Nc3cc(CN4CCN(C(=O)C(C)(C)OC)CC4)ccn3)[nH]c2c1 [Example 04.10, 2-methoxy-1-{4-[(2-{[6-(3-methoxypyridin-4-yl)-1H-benzimidazol-2-yl]amino}pyridin-4-yl)methyl]piperazin-1-yl}-2-methylpropan-1-one] to COc1cnc(C)cc1-c1ccc2nc(Nc3cc(CN4CCN(C(=O)CC5CC5)CC4)ccn3)[nH]c2c1 [Example 07.04, 2-cyclopropyl-1-{4-[(2-{[6-(5-methoxy-2-methylpyridin-4-yl)-1H-benzimidazol-2-yl]amino}pyridin-4-yl)methyl]piperazin-1-yl}ethanone], the IC50 rises from 28.3 nM to 444 nM (16-fold).

Cc1cncnc1-c1ccc2nc(Nc3cc(CN4CCN(C(=O)CC(F)(F)F)CC4)ccn3)[nH]c2c1 [Example 184.02, 3,3,3-trifluoro-1-{4-[(2-{[6-(5-methylpyrimidin-4-yl)-1H-benzimidazol-2-yl]amino}pyridin-4-yl)methyl]piperazin-1-yl}propan-1-one] and COc1cnc(C)cc1-c1ccc2nc(Nc3cc(CN4CCN(C(=O)CC(F)(F)F)CC4)ccn3)[nH]c2c1 [Example 07.02, 3,3,3-trifluoro-1-{4-[(2-{[6-(5-methoxy-2-methylpyridin-4-yl)-1H-benzimidazol-2-yl]amino}pyridin-4-yl)methyl]piperazin-1-yl}propan-1-one] are within 1.5-fold of each other in IC50: 201 nM for the first, 277 nM for the second.

Compared with CC(c1ccnc(Nc2nc3ccc(-c4cc(OCC(C)(F)F)ncn4)cc3[nH]2)c1)N1CCN(C(=O)C2CC2)CC1 (single isomer, unassigned) [Example 165.03, cyclopropyl(4-{(1R or 1S)-1-[2-({6-[6-(2,2-difluoropropoxy)pyrimidin-4-yl]-1H-benzimidazol-2-yl}amino)pyridin-4-yl]ethyl}piperazin-1-yl)methanone], CC(c1ccnc(Nc2nc3ccc(-c4ccncn4)cc3[nH]2)c1)N1CCN(C(=O)C2CCC2)CC1 (single isomer, unassigned) [Example 23.05.03.A, cyclobutyl{4-[(1R or 1S)-1-(2-{[6-(pyrimidin-4-yl)-1H-benzimidazol-2-yl]amino}pyridin-4-yl)ethyl]piperazin-1-yl}methanone] is 1.7-fold higher in IC50: 1.79 nM for the first, 2.99 nM for the second. The first is the more potent here.

First: COc1cncnc1-c1ccc2nc(Nc3cc(C(C)N4CCN(C(=O)C5CCC5)CC4)ccn3)[nH]c2c1 (single isomer, unassigned) [Example 35.03.04.A, cyclobutyl{4-[(1R or 1S)-1-(2-{[6-(5-methoxypyrimidin-4-yl)-1H-benzimidazol-2-yl]amino}pyridin-4-yl)ethyl]piperazin-1-yl}methanone]
Second: COc1c(-c2ccc3nc(Nc4cc(C(C)N5CCN(C(=O)C6CC6)CC5)ccn4)[nH]c3c2)ncnc1N1CC(F)(F)C1 (single isomer, unassigned) [Example 113.03, cyclopropyl(4-{(1R or 1S)-1-[2-({6-[6-(3,3-difluoroazetidin-1-yl)-5-methoxypyrimidin-4-yl]-1H-benzimidazol-2-yl}amino)pyridin-4-yl]ethyl}piperazin-1-yl)methanone]
The IC50 of the first is 7.6-fold higher: 8.38 nM for the first, 1.1 nM for the second. The second is the more potent here.

Going from COc1cncnc1-c1ccc2nc(Nc3cc(CN4CCN(S(=O)(=O)C5CCOCC5)CC4)ccn3)[nH]c2c1 [Example 35.01.14, 6-(5-methoxypyrimidin-4-yl)-N-(4-{[4-(tetrahydro-2H-pyran-4-ylsulfonyl)piperazin-1-yl]methyl}pyridin-2-yl)-1H-benzimidazol-2-amine] to O=C(C1CC1)N1CCN(Cc2ccnc(Nc3nc4ccc(-c5ccnc(C(F)F)c5)cc4[nH]3)c2)CC1 [Example 139.03, cyclopropyl(4-{[2-({6-[2-(difluoromethyl)pyridin-4-yl]-1H-benzimidazol-2-yl}amino)pyridin-4-yl]methyl}piperazin-1-yl)methanone], the IC50 falls from 22.8 nM to 9.7 nM (2.4-fold). The second is the more potent here.

First: Cc1nc(Cl)cc(-c2ccc3nc(Nc4cc(CN5CCN(C(=O)OC(C)(C)C)CC5)ccn4)[nH]c3c2)n1 [Example 186.01, tert-butyl 4-[(2-{[6-(6-chloro-2-methylpyrimidin-4-yl)-1H-benzimidazol-2-yl]amino}pyridin-4-yl)methyl]piperazine-1-carboxylate]
Second: CN(CC1CC1)c1cc(-c2ccc3nc(Nc4cc(CN5CCN(C(=O)CC(F)(F)F)CC5)ccn4)[nH]c3c2)ncn1 [Example 141.02, 1-[4-({2-[(6-{6-[(cyclopropylmethyl)(methyl)amino]pyrimidin-4-yl}-1H-benzimidazol-2-yl)amino]pyridin-4-yl}methyl)piperazin-1-yl]-3,3,3-trifluoropropan-1-one]
The IC50 of the first is 3.1-fold higher: 59.1 nM for the first, 19 nM for the second. The second is the more potent here.

Going from CC(c1ccnc(Nc2nc3ccc(-c4cc(N5CCCC5)ncn4)cc3[nH]2)c1)N1CCN(C(=O)C2(C(F)(F)F)CC2)CC1 (single isomer, unassigned) [Example 117.04, (4-{(1R or 1S)-1-[2-({6-[6-(pyrrolidin-1-yl)pyrimidin-4-yl]-1H-benzimidazol-2-yl}amino)pyridin-4-yl]ethyl}piperazin-1-yl)[1-(trifluoromethyl)cyclopropyl]methanone] to O=C(C1CC1)N1CCN(Cc2cc(Nc3nc4ccc(-c5ccncn5)cc4[nH]3)nc(C(F)(F)F)c2)CC1 [Example 23.03.01, cyclopropyl(4-{[2-{[6-(pyrimidin-4-yl)-1H-benzimidazol-2-yl]amino}-6-(trifluoromethyl)pyridin-4-yl]methyl}piperazin-1-yl)methanone], the IC50 rises from 0.819 nM to 161 nM (200-fold).

Cc1noc(-c2ccc3nc(Nc4cc(CN5CCN(c6ccccn6)CC5)ccn4)[nH]c3c2)n1 [Example 101.15, 6-(3-methyl-1,2,4-oxadiazol-5-yl)-N-(4-{[4-(pyridin-2-yl)piperazin-1-yl]methyl}pyridin-2-yl)-1H-benzimidazol-2-amine] gave an IC50 of 210 nM.
